Key:
[1] = test system: chick embryo yolk sac membrane (YSM) blood vessels; assay: In ovo chick embryo yolk sac membrane (YSM) angiogenesis model; format: in vivo, white Leghorn breed of fowls; details: all tested concentrations, 24 hr after treatment, in comparison with control
[2] = Bulk density, ASTM D6683-19; format: physicochemical
[3] = patients; cited from earlier work

Row | Substance | number of quaternary blood vessels [1] | bulk density [2] [g/mL] | dyspepsia [3] [%] | elevation in liver enzymes [3] [%] | headache [3] [%] | herpes zoster reactivation [3] [%] | menorrhagia [3] [%] | rash [3] [%]
1 | Avastin: monoclonal antibody targeted against VEGF, approved by FDA for therapeutic intervention in cancer | significant decrease |  |  |  |  |  |  | 
2 | Arsenic tri oxide [ATO] |  | 1.3336 | 24 | 42 | 29 | 13 | 4 | 11

Source: patent US20230149452A1, “STRUCTURALLY DEFINED, BETTER TOLERATED, ORALLY ADMINSTERED, PROCESSED ARSENOLITE, A PROCESS FOR ITS PREPARATION, A PHARMACEUTICAL COMPOSITION AND USES THEREOF” (priority 2020, published 2023)
